Assay results taken from patent publication US12552812B2, “Pyridone multiple-membered ring derivatives and use thereof” (priority 2021, dated 2026).
Like-named read-outs stand apart in the source and are kept apart here.

Key:
[1] = system: influenza A virus A/PR/8/34 (H1N1); format: in vivo, BALB/c mice; conditions: for Survival rate (percentage): end of the experiment (day 14); for Maximum rate of weight loss / day N of maximum rate of weight loss: mouse, in vivo
[2] = system: influenza virus A/PR/8/34 (H1N1); assay: Influenza virus cytopathic effect (CPE) assay in MDCK cells; format: cell-based; conditions: 120 h, 5 days, CCK8
in vitro [3] = format: in vitro ADME; conditions: 2 μM, 37° C., 4 hours, read-out: Plasma protein binding (PPB) unbound (%)
Method: (§1) Experimental purpose: To evaluate the protein binding rate of the compounds of the present disclosure in the plasma of CD-1 mouse, SD rat, and human using equilibrium dialysis.
(§2) Experimental protocol: The test compounds were diluted with dialysis buffer into the plasma of the above […] to prepare samples with a final concentration of 2 μM. The samples were then added to a 96-well equilibrium dialysis device and dialyzed using phosphate buffer solution at 37° C. for 4 hours. Warfarin was used as a control compound in the experiment. The concentration of the test compounds and warfarin in the plasma and buffer was determined using LC-MS/MS.

in vitro [4] = format: in vitro ADME, CD-1 mouse; conditions: CD-1; mouse (M) plasma, 2 μM, 37° C., 4 hours; read-out: Plasma protein binding (PPB) unbound (%)
Method: as §1, §2

in vivo [5] = assay: in vivo; design: species or system male SD rats; conditions: male, SD, iv, 1 mg/kg, rat, 1 mpk
Method: Experimental purpose: To investigate the plasma pharmacokinetics of the compounds of the present disclosure in male SD rats after a single intravenous injection or an oral administration.
Experimental animals: male SD rats, 6 to 8 weeks old, weighing between 200 to 300 g;
Experimental procedure: Injection administration (i.v.) was carried out with a dose of 1 mpk, at a concentration of 0.50 mg/mL, with a vehicle of 40% DMAC+40% PG+20% (20% HP-β-CD+water). Oral administration (po) was carried out with a dose of 10 mpk, at a concentration of 1 mg/mL, with a vehicle of 3% DMSO+10% solutol HS+87% water.
(§3) Sample collection: At each time point, 0.03 mL of blood samples were collected from the experimental animals through a puncture of the saphenous vein. The actual blood collection time was recorded. All blood samples were kept in commercially available 1.5 mL EDTA-K2 anticoagulant tubes. After blood sample collection, DDV was added into the plasma matrix as a stabilizer, wherein the ratio of plasma to Dichlorvos (DDV) solution was 40:1. The DDV solution was a 40 mM DDV solution in acetonitrile/water (1:1). Within half an hour, the mixture was centrifuged at 4° C. and 3000 g for 10 minutes. The supernatant plasma was aspirated, quickly placed in dry ice, and stored in a −80° C. refrigerator for LC-MS/MS analysis.
Data analysis: A non-compartmental model in Phoenix WinNonlin 6.3 pharmacokinetic software was used to process the plasma concentration data. The pharmacokinetic parameters were calculated using the linear-log trapezoidal method: Cl (apparent clearance rate), T1/2 (the time required to clear half of the compound), Cmax (peak concentration), and AUC0-last (integral area under the concentration-time curve from 0 to the last sampling time).

in vivo [6] = assay: in vivo; design: species or system male beagle dogs; conditions: male, iv, 1 mg/kg, beagle dog, 1 mpk
Method: Experimental purpose: To investigate the plasma pharmacokinetics of the compounds of the present disclosure in male beagle dogs after a single intravenous injection or an oral administration.
Experimental animals: male beagle dogs, >6 months old, weighing between 6 to 12 kg.
Experimental procedure: Injection administration (i.v.) was carried out with a dose of 1 mpk, at a concentration of 1 mg/mL, with a vehicle of 10% DMAC+90% (20% HP-β-CD+water). Oral administration (po) was carried out with a dose of 10 mpk, at a concentration of 2 mg/mL, with a vehicle of 3% DMSO+10% solutol HS+87% water.
as §3, with “0.8” for “0.03”
Data analysis: A non-compartmental model in Phoenix WinNonlin 6.3 pharmacokinetic software was used to process the plasma concentration data. The pharmacokinetic parameters were calculated using the linear-log trapezoidal method: Cl, T1/2, Cmax, and AUC0-last.

What does the source list for COC(=O)OCOc1c2n(ccc1=O)N([C@H]1c3ccc(F)c(F)c3C[Se]c3cccnc31)[C@@H]1COCCN1C2=O [Compound 4]?
Survival rate (percentage) [1]: 100%; Maximum rate of weight loss [1]: 7.03%; day N of maximum rate of weight loss [1]: 3 days

With O=C1c2c(O)c(=O)ccn2N([C@H]2c3ccc(F)c(F)c3C[Se]c3cccnc32)[C@@H]2COCCN12 [Compound 3] as the compound, how does the EC50 [2] read?
Its EC50 is 2.8 nM.

And the fraction unbound (in vitro [3]; SD, rat (R) plasma)?
Its fraction unbound is 0.313.

What about the fraction unbound (in vitro [3]; crab-eating macaque (C) plasma) of the same compound?
The fraction unbound was 0.316.

What about the fraction unbound (in vitro [3]; dog (D) plasma) of the same compound?
The fraction unbound was 0.246.

What about the fraction unbound (in vitro [3]; human (H) plasma) of the same compound?
Its fraction unbound is 0.259.

What about the fraction unbound (in vitro [4]) of the same compound?
The fraction unbound was 0.137.

What about the AUC(0-t) (in vivo [5]) of the same compound?
The AUC(0-t) was 0.171 µM·h.

And the clearance (in vivo [5])?
Its clearance is 178 mL/min/kg.

What about the half-life (in vivo [5]) of the same compound?
The half-life was 1.7 h.

What about the AUC(0-t) (in vivo [6]) of the same compound?
Its AUC(0-t) is 0.83 µM·h.

What about the clearance (in vivo [6]) of the same compound?
The clearance was 36.8 mL/min/kg.

What about the half-life (in vivo [6]) of the same compound?
The half-life was 3.7 h.

Which EC50 [2] does the source give for O=C1c2c(O)c(=O)ccn2N([C@@H]2c3ccc(F)c(F)c3C[Se]c3cccnc32)[C@@H]2COCCN12 [Compound 3′] here?
Its EC50 is 157 nM.

Which “Survival rate (percentage)” value [1] does the source give for COC(=O)OCOc1c2n(ccc1=O)N([C@@H]1c3ccccc3[Se]Cc3c1ccc(F)c3F)[C@@H]1COCCN1C2=O [Compound 5] here?
Its value is 100%.

And the “Maximum rate of weight loss” value [1]?
The value was 13.77%.

And the “day N of maximum rate of weight loss” value [1]?
The value was 7 days.
